# Molecular target: T1, panel of 442 kinases (Homo sapiens, UniProt Q8WXR4)
# T1 construct: purchased KINOMEscan
# T1 sequence (Q8WXR4 1-1341): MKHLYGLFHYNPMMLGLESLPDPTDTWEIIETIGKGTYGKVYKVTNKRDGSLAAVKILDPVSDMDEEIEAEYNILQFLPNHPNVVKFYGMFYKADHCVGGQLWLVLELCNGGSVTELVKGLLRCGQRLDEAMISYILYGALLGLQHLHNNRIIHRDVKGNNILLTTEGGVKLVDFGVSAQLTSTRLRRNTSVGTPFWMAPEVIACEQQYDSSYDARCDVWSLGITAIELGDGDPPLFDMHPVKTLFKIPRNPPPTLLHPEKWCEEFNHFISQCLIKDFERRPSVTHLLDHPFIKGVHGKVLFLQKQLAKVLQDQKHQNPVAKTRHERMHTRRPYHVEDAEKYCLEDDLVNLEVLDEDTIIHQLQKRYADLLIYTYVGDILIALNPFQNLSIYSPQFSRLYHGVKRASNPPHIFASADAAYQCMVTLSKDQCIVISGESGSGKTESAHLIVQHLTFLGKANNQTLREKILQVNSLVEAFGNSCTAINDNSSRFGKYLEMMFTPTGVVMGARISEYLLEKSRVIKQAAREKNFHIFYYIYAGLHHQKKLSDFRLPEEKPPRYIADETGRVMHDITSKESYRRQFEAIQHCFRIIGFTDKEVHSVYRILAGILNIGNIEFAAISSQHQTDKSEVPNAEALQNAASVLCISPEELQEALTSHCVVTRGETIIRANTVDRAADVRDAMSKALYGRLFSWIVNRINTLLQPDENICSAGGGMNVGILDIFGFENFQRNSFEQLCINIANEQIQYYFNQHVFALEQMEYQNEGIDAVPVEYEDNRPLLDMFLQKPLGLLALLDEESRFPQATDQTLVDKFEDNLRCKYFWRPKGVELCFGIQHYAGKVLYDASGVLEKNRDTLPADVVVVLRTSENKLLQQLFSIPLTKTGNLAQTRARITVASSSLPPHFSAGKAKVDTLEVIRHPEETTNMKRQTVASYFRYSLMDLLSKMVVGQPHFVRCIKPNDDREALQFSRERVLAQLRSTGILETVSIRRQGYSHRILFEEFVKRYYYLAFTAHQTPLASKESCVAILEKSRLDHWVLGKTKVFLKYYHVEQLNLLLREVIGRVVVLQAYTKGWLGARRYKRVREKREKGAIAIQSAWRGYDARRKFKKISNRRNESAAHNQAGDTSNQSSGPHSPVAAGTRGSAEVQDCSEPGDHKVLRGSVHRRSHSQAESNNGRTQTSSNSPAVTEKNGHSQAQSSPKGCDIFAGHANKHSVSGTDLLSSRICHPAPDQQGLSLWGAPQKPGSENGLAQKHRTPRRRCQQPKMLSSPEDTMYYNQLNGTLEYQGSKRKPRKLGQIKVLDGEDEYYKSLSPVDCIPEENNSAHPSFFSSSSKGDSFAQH
# Format: binding
# Conditions: Compound Concentration 10 µM
# Description: We assessed the selectivity of members of this scaffold using the KINOMEscan methodology across a near comprehensive panel of 442 kinases [[18,27]].
row,SMILES,KINOMEscan: MYO3B
1,COc1cc(C(=O)N2CCC(N3CCN(C)CC3)CC2)ccc1Nc1ncc2c(n1)N1CCc3cccc(c31)C(=O)N2C [Compound 24],76
2,CCOc1cc(C(=O)N2CCC(N3CCN(C)CC3)CC2)ccc1Nc1ncc2c(n1)N(C1CCCC1)c1ccccc1C(=O)N2C [Compound 26],100
3,"COc1cc(C(=O)N2CCC(N3CCN(C)CC3)CC2)ccc1Nc1ncc2c(n1)N(C1CCCC1)c1ccccc1C(=O)N2C [Compound 25, 11-cyclopentyl-2-((2-methoxy-4-(4-(4-methylpiperazin-1-yl)piperidine-1-carbonyl)phenyl)amino)-5-methyl-5H-benzo[e]pyrimido[5,4-b][1,4]diazepin-6(11H)-one]",100
4,COc1cc(C(=O)N2CCC(N3CCN(C)CC3)CC2)ccc1Nc1ncc2c(n1)N(C)c1ccccc1C(=O)N2C [15 (LRRK2-IN-1)],83

# From publication PMC3914206
